The nature of series [1]: Dissociation constant, pKa of the compound by capillary electrophoresis. It is filed as physicochemical.
A short description of series [2]: Drug uptake in wild-type C57Bl/6J mouse brain at 30 mg/kg, po after 4 hrs. It counts as ADME, organism-based. On the set-up: dose 30 mg/kg, route oral. Particulars: read-out: Drug uptake.
Series [3] is described as follows: Plasma concentration in wild-type C57Bl/6J mouse at 30 mg/kg, po after 4 hrs. Set-up: dose 30 mg/kg, route oral. It counts as ADME, organism-based.
Series [4] can be described thus: Ratio of drug level in brain to plasma in wild-type C57Bl/6J mouse at 30 mg/kg, po after 4 hrs. It is filed as ADME, organism-based. On the set-up: dose 30 mg/kg, route oral. Particulars: read-out: BPR.

In turn, `C[C@@]1(c2cccc(NC(=O)c3ccc(Cl)cn3)c2)COC(N)=N1` showed a pKa in series [1] of 8.3.
For the compound `CC1(c2cccc(NC(=O)c3ccccn3)c2)CSC(N)=N1` (centres undefined), the pKa in series [1] is 8.3.
For `CN1C(=O)C(C)(c2cccc(NC(=O)c3ccc(Cl)cn3)c2)N=C1N` (centres undefined), in series [1], the pKa is 7.3.
Turning to `C[C@]1(c2cccc(NC(=O)c3ccc(Cl)cn3)c2)N=C(N)c2ccccc21`, the pKa in series [1] came out at 9.7.
The same measure, in the same setting: the same measure for `NC1=NC2(CCc3ccc(NC(=O)c4ccc(Cl)cn4)cc32)CO1` (centres undefined): 8.3; for `NC1=NC2(CCc3ccc(NC(=O)c4ccc(Cl)cn4)cc32)CS1` (centres undefined): 8.3.
As to `CN1CC[C@@](C)(c2cc(NC(=O)c3ccc(Cl)cn3)ccc2F)N=C1N`, the concentration at 4 h was less than 13 ng/g in series [2] and less than 3 ng/mL in series [3]. The pKa in series [1] is greater than 11.
In the case of `C[C@@]1(c2cc(NC(=O)c3ccc(Cl)cn3)ccc2F)CCC2(CC2)C(N)=N1`, the concentration at 4 h in series [2] was 8 ng/g; in series [3], 81 ng/mL. Besides, the Kp at 4 h in series [4] came to 0.1. Further, the pKa in series [1] is greater than 11.
`C[C@@]1(c2cc(NC(=O)c3ccc(Cl)cn3)ccc2F)CCCOC(N)=N1`: the pKa in series [1] stood at 10.4.

A word on the pKa: it is the pH at which an ionisable group is half protonated.

(Values after ChEMBL document CHEMBL2401721, “BACE1 inhibitors: a head group scan on a series of amides” (Bioorg Med Chem Lett, 2013).)
